23 compounds from patent US8455485B2, “Pyrazolo pyridine derivatives as NADPH oxidase inhibitors” (Genkyotex SA, priority 2008, dated 2013) can be followed below.

This assay relates to NOX activity. In words: Amplex Red measurement of extracellular hydrogen peroxide (NOX activity) using DMSO-differentiated HL60 cells. It is filed as cell-based, human. Conditions: Amplex red, DMSO-differentiated HL60 cells; compound concentration not stated. As to the method:
Human acute myeloid leukemia cell line HL-60 was cultured in RPMI 1640 (Invitrogen) supplemented with 10% heat-inactivated calf serum, 2 mM glutamine, 100 U/mL penicillin (Sigma), and 100 μg streptomycin (Sigma) at 37° C. under a humidified atmosphere of 5% CO2. HL60 differentiation to the neutrophil phenotype was triggered by adding Me2SO (final concentration 1.25% v/v for 6 days) to the culture medium.
Extracellular hydrogen peroxide was measured using Amplex UltraRed (Molecular Probes). Cells were trypsinized (1× Trypsin-EDTA), collected by centrifugation, and resuspended in HBSS supplemented with 1% glucose. Cells were seeded into black 96-well plates at a density of 50′000 cells in 200 μl testing buffer (HBSS 1% glucose containing 0.005 U/mL horseradish peroxidase (Roche) and 50 μM Amplex Red in the presence or absence of compounds according to the invention. As a control, DPI was included at a final concentration of 10 μM The plates were placed in the fluorescent Optima Fluorescent plate reader and kept at 37° C. during 20 min Fluorescence was measured for […] with excitation and emission wavelengths of 544 nm and 590 nm respectively. NOX activities were expressed as % of the activity in control cells. Residual activity of DPI-treated cells was usually <10%.
The Table 2 below summarizes the percentage of inhibition of NOX activity as measured by Amplex red using DMSO-differentiated HL60 cells as described above: […]

In the case of `O=c1c2c(CN3CCOCC3)n(Cc3ccccc3)c(=O)cc2[nH]n1-c1ccccc1Cl` [Compound 1, 5-benzyl-2-(2-chlorophenyl)-4-(morpholin-4-ylmethyl)-1H-pyrazolo[4,3-c]pyridine-3,6(2H,5H)-dione], the “Inhibition (%) of NOX activity” value came out at 80%.

As to `CCCCc1c2c(=O)n(C)[nH]c2cc(=O)n1Cc1ccccn1` [Compound 3, 4-butyl-2-methyl-5-(pyridin-2-ylmethyl)-1H-pyrazolo[4,3-c]pyridine-3,6(2H,5H)-dione], the “Inhibition (%) of NOX activity” value turned out to be 84%.

On to `CCCCc1c2c(=O)n(-c3ccc(OCc4ccccc4)cc3)[nH]c2cc(=O)n1Cc1ccc(Cl)cc1` [Compound 4, 2-[4-(benzyloxy)phenyl]-4-butyl-5-(4-chlorobenzyl)-1H-pyrazolo[4,3-c]pyridine-3,6(2H,5H)-dione], for which the “Inhibition (%) of NOX activity” value turned out to be 69%.

For `CCCCc1c2c(=O)n(-c3ccc(OCc4ccccc4)cc3)[nH]c2cc(=O)n1C` [Compound 5, 2-[4-(benzyloxy)phenyl]-4-butyl-5-methyl-1H-pyrazolo[4,3-c]pyridine-3,6(2H,5H)-dione], the “Inhibition (%) of NOX activity” value was 94%.

`CCCCc1c2c(=O)n(-c3ccc(F)cc3Cl)[nH]c2cc(=O)n1Cc1ccco1` [Compound 7, 4-butyl-2-(2-chloro-4-fluorophenyl)-5-(furan-2-ylmethyl)-1H-pyrazolo[4,3-c]pyridine-3,6(2H,5H)-dione]: the “Inhibition (%) of NOX activity” value is recorded as 91%.

With `CCCCc1c2c(=O)n(-c3ccc(F)cc3Cl)[nH]c2cc(=O)n1CCOC` [Compound 9, 4-butyl-2-(2-chloro-4-fluorophenyl)-5-(2-methoxyethyl)-1H-pyrazolo[4,3-c]pyridine-3,6(2H,5H)-dione], the “Inhibition (%) of NOX activity” value came out at 76%.

On to `CCCCc1c2c(=O)n(-c3ccc(F)cc3Cl)[nH]c2cc(=O)n1CCc1ccccn1` [Compound 10, 4-butyl-2-(2-chloro-4-fluorophenyl)-5-(2-pyridin-2-ylethyl)-1H-pyrazolo[4,3-c]pyridine-3,6(2H,5H)-dione], for which the “Inhibition (%) of NOX activity” value worked out at 78%.

For the compound `COCCCn1c(CN(C)Cc2ccccc2)c2c(=O)n(-c3ccc(F)cc3Cl)[nH]c2cc1=O` [Compound 12, 4-{[benzyl(methyl)amino]methyl}-2-(2-chloro-4-fluorophenyl)-5-(3-methoxypropyl)-1H-pyrazolo[4,3-c]pyridine-3,6(2H,5H)-dione], the “Inhibition (%) of NOX activity” value stood at 79%.

Take `CCCCc1c2c(=O)n(-c3ccc(F)cc3Cl)[nH]c2cc(=O)n1Cc1ccccc1CN1CCOCC1` [Compound 14, 4-butyl-2-(2-chloro-4-fluorophenyl)-5-[2-(morpholin-4-ylmethyl)benzyl]-1H-pyrazolo[4,3-c]pyridine-3,6(2H,5H)-dione]: the “Inhibition (%) of NOX activity” value is 86%.

For `COCc1c2c(=O)n(-c3cccc(Cl)c3)[nH]c2cc(=O)n1Cc1ccccn1` [Compound 23, 2-(3-chlorophenyl)-4-(methoxymethyl)-5-(pyridin-2-ylmethyl)-1H-pyrazolo[4,3-c]pyridine-3,6(2H,5H)-dione], the “Inhibition (%) of NOX activity” value worked out at 89%.

On to `Cn1[nH]c2cc(=O)n(Cc3ccccn3)c(CCCOc3ccccc3)c2c1=O` [Compound 30, 2-methyl-4-(3-phenoxypropyl)-5-(pyridin-2-ylmethyl)-1H-pyrazolo [4,3-c]pyridine-3,6(2H,5H)-dione], for which the “Inhibition (%) of NOX activity” value came to 92%.

Consider `COCCn1c(CN2CCCC2)c2c(=O)n(Cc3ccccc3)[nH]c2cc1=O` [Compound 31, 2-benzyl-5-(2-methoxyethyl)-4-(pyrrolidin-1-ylmethyl)-1H-pyrazolo [4,3-c]pyridine-3,6(2H,5H)-dione], for which the “Inhibition (%) of NOX activity” value turned out to be 82%.

On to `CCOCCCn1c(CN2CCCC2)c2c(=O)n(-c3ccc(F)cc3Cl)[nH]c2cc1=O` [Compound 45, 2-(2-chloro-4-fluoro-phenyl)-5-(3-ethoxypropyl)-4-(pyrrolidin-1-ylmethyl)-1H-pyrazolo[4,3-c] pyridine-3,6(2H,5H)-dione], for which the “Inhibition (%) of NOX activity” value was found to be 86%.

As for `CCOCCCn1c(CN2CCCC2)c2c(=O)n(Cc3ccccc3)[nH]c2cc1=O` [Compound 47, 2-benzyl-5-(3-ethoxypropyl)-4-(pyrrolidin-1-ylmethyl)-1H-pyrazolo[4,3-c]pyridine-3,6(2H,5H)-dione], the “Inhibition (%) of NOX activity” value turned out to be 89%.

Take `Cn1[nH]c2cc(=O)n(Cc3ccc(Cl)cc3)c(CN3CCCC3)c2c1=O` [Compound 52, 5-(4-chlorobenzyl)-2-methyl-4-(pyrrolidin-1-ylmethyl)-1H-pyrazolo[4,3-c]pyridine-3,6(2H,5H)-dione]: the “Inhibition (%) of NOX activity” value came out at 90%.

With `CC(=O)Nc1cccc(Cn2c(CN3CCCC3)c3c(=O)n(-c4ccc(OCc5ccccc5)cc4)[nH]c3cc2=O)c1` [Compound 53, N-[3-({2-[4-(benzyloxy)phenyl]-3,6-dioxo-4-(pyrrolidin-1-ylmethyl)-1,2,3,6-tetrahydro-5H-pyrazolo[4,3-c]pyridin-5-yl}methyl)phenyl] acetamide], the “Inhibition (%) of NOX activity” value worked out at 86%.

Regarding `COCCn1c(COc2ccc(F)cc2)c2c(=O)n(-c3ccccc3Cl)[nH]c2cc1=O` [Compound 58, 2-(2-chlorophenyl)-4-[(4-fluorophenoxy)methyl]-5-(2-methoxyethyl)-1H-pyrazolo[4,3-c]pyridine-3,6(2H,5H)-dione], the “Inhibition (%) of NOX activity” value is 80%.

Turning to `Cn1[nH]c2cc(=O)n(Cc3ccccn3)c(COCc3ccccc3)c2c1=O` [Compound 63, 4-[(benzyloxy)methyl]-2-methyl-5-(pyridin-2-ylmethyl)-1H-pyrazolo [4,3-c]pyridine-3,6 (2H,5H)-dione], the “Inhibition (%) of NOX activity” value is given as 89%.

`Cn1[nH]c2cc(=O)n(Cc3cccc(N4CCOCC4)n3)c(COc3ccc(F)cc3)c2c1=O` [Compound 65, 4-[(4-fluorophenoxy)methyl]-2-methyl-5-[(6-morpholin-4-ylpyridin-2-yl)methyl]-1H-pyrazolo[4,3-c] pyridine-3,6(2H,5H)-dione]: the “Inhibition (%) of NOX activity” value was 80%.

With `Cn1c(C2CN(Cc3ccccc3)CCO2)c2c(=O)n(-c3ccccc3Cl)[nH]c2cc1=O` (centres unmarked) [Compound 84, 4-(4-benzylmorpholin-2-yl)-2-(2-chloro-phenyl)-5-methyl-1H-pyrazolo [4,3-c]pyridine-3,6 (2H,5H)-dione], the “Inhibition (%) of NOX activity” value worked out at 78%.

In the case of `Cn1c(COc2ccc(Cl)cc2)c2c(=O)n(-c3ccccc3Cl)[nH]c2cc1=O` [Compound 92, 4-[(4-chlorophenoxy)methyl]-2-(2-chlorophenyl)-5-methyl-1H-pyrazolo[4,3-c] pyridine-3,6(2H,5H)-dione], the “Inhibition (%) of NOX activity” value worked out at 76%.

Take `CN(Cc1c2c(=O)n(-c3ccccc3Cl)[nH]c2cc(=O)n1CCc1ccccn1)c1ccccc1` [Compound 93, 2-(2-chlorophenyl)-4-{[methyl(phenyl)amino]methyl}-5-(2-pyri-din-2-ylethyl)-1H-pyrazolo[4,3-c] pyridine-3,6(2H,5H)-dione]: the “Inhibition (%) of NOX activity” value is reported as 80%.

Regarding `CC(C)(C)OC(=O)N1CCC(Cn2c(COCc3ccccc3)c3c(=O)n(-c4ccccc4Cl)[nH]c3cc2=O)CC1` [Compound 100, tert-butyl 4-({4-[(benzyloxy)methyl]-2-(2-chlorophenyl)-3,6-dioxo-1,2,3,6-tetrahydro-5H-pyrazolo[4,3-c]pyri-din-5-yl}methyl)pipe-ridine-1-carboxylate], the “Inhibition (%) of NOX activity” value is reported as 78%.
